The source of these data is US12030878B2 (BRISTOL-MYERS SQUIBB COMPANY, priority 2017, dated 2024).

What all share (assay type): cell-based
Assay [1] concerns the target T1, human TLR7 (Homo sapiens, UniProt Q9NYK1).
T1 construct: host or cells: HEK-Blue cells
T1 sequence (Q9NYK1 27-1049): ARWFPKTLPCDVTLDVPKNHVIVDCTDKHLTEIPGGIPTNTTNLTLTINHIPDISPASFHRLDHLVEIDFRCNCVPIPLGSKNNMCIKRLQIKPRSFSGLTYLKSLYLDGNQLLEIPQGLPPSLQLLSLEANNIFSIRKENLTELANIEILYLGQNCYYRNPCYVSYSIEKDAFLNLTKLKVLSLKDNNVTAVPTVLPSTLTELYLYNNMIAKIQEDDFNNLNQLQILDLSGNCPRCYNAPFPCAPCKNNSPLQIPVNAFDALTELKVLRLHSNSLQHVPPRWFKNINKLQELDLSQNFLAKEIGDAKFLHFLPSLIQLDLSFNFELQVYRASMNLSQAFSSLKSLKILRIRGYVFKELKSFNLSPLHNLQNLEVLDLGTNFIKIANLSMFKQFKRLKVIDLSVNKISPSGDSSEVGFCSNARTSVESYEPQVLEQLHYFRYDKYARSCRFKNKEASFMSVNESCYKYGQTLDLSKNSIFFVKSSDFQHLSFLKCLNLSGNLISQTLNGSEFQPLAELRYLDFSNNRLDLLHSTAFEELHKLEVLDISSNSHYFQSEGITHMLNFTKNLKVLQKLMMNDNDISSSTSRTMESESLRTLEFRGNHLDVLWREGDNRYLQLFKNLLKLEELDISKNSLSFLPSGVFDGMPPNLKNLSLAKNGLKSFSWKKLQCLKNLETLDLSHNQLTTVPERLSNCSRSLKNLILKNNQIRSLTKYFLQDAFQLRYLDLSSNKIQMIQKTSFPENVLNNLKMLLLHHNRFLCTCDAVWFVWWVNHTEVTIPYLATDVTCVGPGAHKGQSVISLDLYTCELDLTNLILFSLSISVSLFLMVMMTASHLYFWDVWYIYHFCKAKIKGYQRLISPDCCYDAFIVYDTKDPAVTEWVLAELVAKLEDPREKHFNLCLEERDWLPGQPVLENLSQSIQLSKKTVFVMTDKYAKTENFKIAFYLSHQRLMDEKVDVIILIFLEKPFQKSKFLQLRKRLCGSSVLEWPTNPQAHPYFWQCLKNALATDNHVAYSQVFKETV
Put plainly: TLR7 inhibition reporter assay (HEK-Blue SEAP). The note with it: HEK-Blue cells overexpressing human TLR7, stimulated with gardiquimod 7.5 μM, 22 hour incubation. The gist of the method:
(§1)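 Stimulation followed a 30 min room-temperature compound exposure (final 0.05 nM-50 μM): TLR7 cells with 7.5 μM gardiquimod, TLR8 with 15.9 μM R848, TLR9 with 5 nM ODN2006. After 22 h at 37 °C, secreted alkaline phosphatase was detected colorimetrically and inhibition calculated against DMSO and known-inhibitor controls.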
On the technique in general: Reporter assays use an easily measured gene product as a stand-in for the process of interest.

For assay [2], the target named is T2, human TLR8 (Homo sapiens, UniProt Q9NR97).
T2 construct: host or cells: HEK-Blue cells
T2 sequence (Q9NR97 27-1041): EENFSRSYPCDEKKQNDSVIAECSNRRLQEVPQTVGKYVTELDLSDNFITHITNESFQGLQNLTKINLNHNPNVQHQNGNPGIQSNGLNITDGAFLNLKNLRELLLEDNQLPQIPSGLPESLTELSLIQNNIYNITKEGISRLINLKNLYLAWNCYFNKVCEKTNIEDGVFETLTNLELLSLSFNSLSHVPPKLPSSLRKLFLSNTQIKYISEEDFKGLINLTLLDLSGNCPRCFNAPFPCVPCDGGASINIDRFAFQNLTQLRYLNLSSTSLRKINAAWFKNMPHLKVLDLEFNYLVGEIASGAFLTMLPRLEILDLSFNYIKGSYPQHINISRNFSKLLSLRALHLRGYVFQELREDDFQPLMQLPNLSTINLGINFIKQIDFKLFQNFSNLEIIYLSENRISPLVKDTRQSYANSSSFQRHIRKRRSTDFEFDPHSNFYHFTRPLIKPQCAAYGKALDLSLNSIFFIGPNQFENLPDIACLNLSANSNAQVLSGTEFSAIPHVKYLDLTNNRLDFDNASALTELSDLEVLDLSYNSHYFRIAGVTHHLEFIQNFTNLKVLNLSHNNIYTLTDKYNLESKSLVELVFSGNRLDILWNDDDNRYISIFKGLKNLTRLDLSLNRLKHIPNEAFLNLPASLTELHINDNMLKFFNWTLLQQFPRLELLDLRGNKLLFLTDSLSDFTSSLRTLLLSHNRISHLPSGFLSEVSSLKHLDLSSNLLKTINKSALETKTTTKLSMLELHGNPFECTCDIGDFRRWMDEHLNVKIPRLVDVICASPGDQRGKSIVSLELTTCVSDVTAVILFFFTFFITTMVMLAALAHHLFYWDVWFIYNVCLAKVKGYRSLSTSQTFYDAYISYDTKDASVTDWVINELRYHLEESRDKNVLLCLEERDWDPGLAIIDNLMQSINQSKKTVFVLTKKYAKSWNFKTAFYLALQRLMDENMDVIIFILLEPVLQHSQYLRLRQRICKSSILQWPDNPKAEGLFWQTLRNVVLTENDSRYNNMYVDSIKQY
The experiment in a line: TLR8 inhibition reporter assay (HEK-Blue SEAP). The note with it: HEK-Blue cells overexpressing human TLR8, stimulated with R848 15.9 μM, 22 hour incubation. The gist of the method:
as §1

In assay [3] the target is T3, human TLR9 (Homo sapiens, UniProt Q9NR96).
T3 construct: host or cells: HEK-Blue cells
T3 sequence (Q9NR96 26-1032): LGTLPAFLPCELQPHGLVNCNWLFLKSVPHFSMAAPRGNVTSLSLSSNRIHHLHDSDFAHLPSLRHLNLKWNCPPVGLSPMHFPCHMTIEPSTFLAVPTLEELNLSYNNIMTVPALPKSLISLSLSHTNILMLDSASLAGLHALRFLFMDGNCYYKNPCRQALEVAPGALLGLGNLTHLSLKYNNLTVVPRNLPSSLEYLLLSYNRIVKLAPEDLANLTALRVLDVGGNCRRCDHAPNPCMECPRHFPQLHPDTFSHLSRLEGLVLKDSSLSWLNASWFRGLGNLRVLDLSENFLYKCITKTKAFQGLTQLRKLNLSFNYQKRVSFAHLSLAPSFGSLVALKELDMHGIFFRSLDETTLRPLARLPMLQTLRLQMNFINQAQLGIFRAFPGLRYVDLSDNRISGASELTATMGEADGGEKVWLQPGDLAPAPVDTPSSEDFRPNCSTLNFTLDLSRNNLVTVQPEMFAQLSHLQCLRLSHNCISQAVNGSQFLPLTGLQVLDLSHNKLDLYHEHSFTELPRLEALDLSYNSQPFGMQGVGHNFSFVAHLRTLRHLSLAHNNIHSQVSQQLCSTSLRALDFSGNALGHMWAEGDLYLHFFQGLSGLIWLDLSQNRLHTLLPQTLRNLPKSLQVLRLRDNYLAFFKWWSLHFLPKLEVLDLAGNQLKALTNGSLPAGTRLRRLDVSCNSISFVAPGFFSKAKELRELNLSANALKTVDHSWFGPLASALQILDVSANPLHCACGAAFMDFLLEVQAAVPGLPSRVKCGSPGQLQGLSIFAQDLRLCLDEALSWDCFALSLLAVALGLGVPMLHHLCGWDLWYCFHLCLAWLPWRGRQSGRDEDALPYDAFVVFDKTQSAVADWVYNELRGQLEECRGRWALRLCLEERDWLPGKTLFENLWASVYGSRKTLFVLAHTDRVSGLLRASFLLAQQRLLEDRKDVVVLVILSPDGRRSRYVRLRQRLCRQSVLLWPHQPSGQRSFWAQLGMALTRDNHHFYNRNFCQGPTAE
Put plainly: TLR9 inhibition reporter assay (HEK-Blue SEAP). The note with it: HEK-Blue cells overexpressing human TLR9, stimulated with ODN2006 5 nM, 22 hour incubation. The gist of the method:
as §1

Where only a bound is given, the exact number is not on record here.

Regarding `Cc1cc(-c2[nH]c3ccc(OCC(=O)N4CCCC5(CNC5)C4)cc3c2C(C)C)ccn1` [Example 140, 2-((3-isopropyl-2-(2-methylpyridin-4-yl)-1H-indol-5-yl)oxy)-1-(2,6-diazaspiro[3.5]nonan-6-yl)ethan-1-one], the IC50 in assay [1] amounted to 629 nM; in assay [2], 216 nM; in assay [3], 886 nM.

Consider `Cc1cc(-c2[nH]c3ccc(OCC(=O)N4CC5(CCNCC5)C4)cc3c2C(C)C)ccn1` [Example 141, 2-((3-isopropyl-2-(2-methylpyridin-4-yl)-1H-indol-5-yl)oxy)-1-(2,7-diazaspiro[3.5]nonan-2-yl)ethan-1-one], for which the IC50 in assay [1] was 427 nM; in assay [2], 186 nM; in assay [3] it was 625 nM.

For the compound `Cc1cc(-c2[nH]c3ccc(OCC(=O)NC4CCC5CNCC54)cc3c2C(C)C)ccn1` (stereo not drawn) [Example 142, 2-((3-isopropyl-2-(2-methylpyridin-4-yl)-1H-indol-5-yl)oxy)-N-(octahydrocyclopenta[c]pyrrol-4-yl)acetamide], the IC50 in assay [1] stood at 349 nM; in assay [2] it was 78.4 nM; in assay [3], 383 nM.

Take `Cc1cc(-c2[nH]c3ccc(OCC(=O)N4CCCCC4C4CCNCC4)cc3c2C(C)C)ccn1` (stereo not drawn) [Example 143, 1-([2,4′-bipiperidin]-1-yl)-2-((3-isopropyl-2-(2-methylpyridin-4-yl)-1H-indol-5-yl)oxy)ethan-1-one]: the IC50 in assay [1] amounted to 330 nM; in assay [2] it was 220 nM; in assay [3], 354 nM.

On to `Cc1cc(-c2[nH]c3ccc(OCC(=O)N4CCC5(CCNCC5)C4)cc3c2C(C)C)ccn1` [Example 144, 2-((3-isopropyl-2-(2-methylpyridin-4-yl)-1H-indol-5-yl)oxy)-1-(2,8-diazaspiro[4.5]decan-2-yl)ethan-1-one], for which the IC50 turned out to be 917 nM in assay [1], 176 nM in assay [2] and 296 nM in assay [3].

Consider `Cc1cc(-c2[nH]c3ccc(OCC(=O)N4CC5CNCC5C4)cc3c2C(C)C)ccn1` (stereo not drawn) [Example 145, 1-(hexahydropyrrolo[3,4-c]pyrrol-2(H)-yl)-2-((3-isopropyl-2-(2-methylpyridin-4-yl)-1H-indol-5-yl)oxy)ethan-1-one], for which the IC50 in assay [1] came out at 315 nM; in assay [2], 137 nM; in assay [3], 260 nM.

With `Cc1cc(-c2[nH]c3ccc(OCC(=O)NCCC4CCCNC4)cc3c2C(C)C)ccn1` (stereo not drawn) [Example 146, 2-((3-isopropyl-2-(2-methylpyridin-4-yl)-1H-indol-5-yl)oxy)-N-(2-(piperidin-3-yl)ethyl)acetamide], the IC50 in assay [1] worked out at 771 nM; in assay [2], 98.4 nM; in assay [3] it was 937 nM.

For the compound `Cc1cc(-c2[nH]c3ccc(OCC(=O)N4CCC(CN)CC4)cc3c2C(C)C)ccn1` [Example 147, 1-(4-(aminomethyl)piperidin-1-yl)-2-((3-isopropyl-2-(2-methylpyridin-4-yl)-1H-indol-5-yl)oxy)ethan-1-one], the IC50 in assay [1] was 1200 nM; in assay [2], 474 nM; in assay [3], 1540 nM.

As to `Cc1cc(-c2[nH]c3ccc(OCC(=O)N(C)C4CCNCC4)cc3c2C(C)C)ccn1` [Example 148, 2-((3-isopropyl-2-(2-methylpyridin-4-yl)-1H-indol-5-yl)oxy)-N-methyl-N-(piperidin-4-yl) acetamide], the IC50 was 142 nM in assay [1], 51.4 nM in assay [2] and 172 nM in assay [3].

In the case of `Cc1cc(-c2[nH]c3ccc(OCC(=O)N4CC5CN(C)CC5C4)cc3c2C(C)C)ccn1` (stereo not drawn) [Example 149, 2-((3-isopropyl-2-(2-methylpyridin-4-yl)-1H-indol-5-yl)oxy)-1-(5-methylhexahydropyrrolo[3,4-c]pyrrol-2(1H)-yl)ethan-1-one], the IC50 worked out at 119 nM in assay [1], 23.8 nM in assay [2] and 410 nM in assay [3].

Regarding `COc1ccc(-c2[nH]c3ccc(OCC(=O)NCC(C)(C)O)cc3c2C(C)C)cc1OC` [Example 150, 2-((2-(3,4-dimethoxyphenyl)-3-isopropyl-1H-indol-5-yl)oxy)-N-(2-hydroxy-2-methylpropyl)acetamide], the IC50 is 302 nM in assay [1], 947 nM in assay [2] and above 50000 nM in assay [3].

In the case of `Cc1cc(-c2[nH]c3ccc(OCC(=O)NCC(C)(C)O)cc3c2C(C)C)ccn1` [Example 151, N-(2-hydroxy-2-methylpropyl)-2-((3-isopropyl-2-(2-methylpyridin-4-yl)-1H-indol-5-yl)oxy)acetamide], the IC50 in assay [1] was 404 nM; in assay [2], 561 nM; in assay [3] it was above 50000 nM.

With `Cc1cc(-c2[nH]c3ccc(OCC(=O)NC[C@@H](F)C(C)(C)O)cc3c2C(C)C)ccn1` [Example 152, (R)—N-(2-fluoro-3-hydroxy-3-methylbutyl)-2-((3-isopropyl-2-(2-methylpyridin-4-yl)-1H-indol-5-yl)oxy)acetamide], the IC50 was 1000 nM in assay [1], 774 nM in assay [2] and above 50000 nM in assay [3].

The term IC50 denotes the concentration that inhibits the measured activity by half. Read a low IC50 as inhibition by little substance.
